The source of these data is patent US20230167101A1, “NOVEL INHIBITORS OF HISTONE […] P300/CBP FOR CANCER THERAPY” (BAYLOR COLLEGE OF MEDICINE, priority 2020, published 2023).

In the first assay the target is T1, HAT domain of human p300 (Homo sapiens, UniProt Q09472).
T1 construct: The HAT domain (1195-1673) of human p300 was cloned, inserted into pGEX-KG vector; made in house; host or cells: E. coli BL21-CodonPlus
T1 sequence (Q09472 1195-1673): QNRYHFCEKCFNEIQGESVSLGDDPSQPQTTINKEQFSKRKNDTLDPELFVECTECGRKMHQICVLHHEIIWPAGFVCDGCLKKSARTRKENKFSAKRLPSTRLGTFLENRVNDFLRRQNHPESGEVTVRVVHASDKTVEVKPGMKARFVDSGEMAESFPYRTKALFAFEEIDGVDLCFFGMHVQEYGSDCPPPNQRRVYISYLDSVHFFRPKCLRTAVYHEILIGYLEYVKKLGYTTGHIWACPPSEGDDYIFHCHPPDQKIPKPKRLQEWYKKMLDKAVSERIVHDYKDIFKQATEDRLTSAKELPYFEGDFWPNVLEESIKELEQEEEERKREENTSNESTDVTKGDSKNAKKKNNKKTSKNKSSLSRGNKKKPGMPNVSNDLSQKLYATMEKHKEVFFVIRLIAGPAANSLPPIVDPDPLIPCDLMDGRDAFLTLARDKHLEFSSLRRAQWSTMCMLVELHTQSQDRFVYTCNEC
Kind of assay: p300 HAT inhibition assay (3H-Ac-CoA, histone H3 (1-21) peptide). The class given is biochemical.
Conditions: not given
As for the experimental part:
A biochemical assay to determine the activity and inhibition of recombinant HAT domain of human p300 was developed, using the substrate histone H3 (1-21) peptide and the ^3H-labeled cofactor Ac—CoA.
The HAT domain (1195-1673) of human p300 was cloned, inserted into pGEX-KG vector and the DNA sequence was verified by sequencing. The p300-HAT expression plasmid was transformed into E. coli BL21-CodonPlus strain (Agilent) and cultured at 37° C. in LB medium containing ampicillin (50 µg/mL) and chloramphenicol (34 µg/mL). After the optical density of the bacterial culture reached ~0.9 at 600 nm, p300 HAT expression was induced by adding 300 µM isopropylthiogalactoside (IPTG) at 18° C. for 48 hours. Cells were collected, lysed, centrifuged for 20 min at 20,000 rpm. The supernatant was subjected to column chromatography with glutathione sepharose resins. […] CBP, PCAF and Myst3 HATs were obtained using similar methods.
To determine inhibitory activity, a compound with concentrations ranging from 100 nM to 10 µM was incubated with p300-HAT (10 nM) in 20 µL of 50 mM phosphate buffer (pH = 7.0) containing 0.01% Brij-35 for 10 min at 25° C. […] After 30 min at 25° C., the reaction was stopped by adding 6 N formic acid (5 µL). 20 µL of reaction mixture was then transferred to a small piece of P81 filter paper (Whatman) that binds histone H3 peptide. The filter paper was washed 3x with 50 mM NaHCO3, dried, and transferred into a scintillation vial containing 2 mL of scintillation cocktail. Radioactivity on the filter paper was measured with a Beckman LS-6500 scintillation counter. IC50 values were obtained by using a standard sigmoidal dose response curve fitting in Prism (version 5.0, GraphPad Software, Inc., La Jolla, CA). IC50 values were the mean values from at least three experiments.
As for `CC(C)(C)c1ccc(-c2cc(COCC3CCNCC3)sc2-c2ccc(C(C)(C)C)cc2)cc1` [Compound 13], the “inhibitory activity against p300 HAT (in words)” value was “complete loss of inhibitory activity”.

Take `CCCCc1ccc(-c2cc(CNCC3CCNCC3)sc2-c2ccc(CCCC)cc2)cc1` [Compound 23]: the “inhibitory activity against p300 HAT (in words)” value was “Loss of activity”.

The same assay, now with this note: p300 HAT.
With `CC(C)(C)c1ccc(-c2cc(CNCCC3CCNCC3)sc2-c2ccc(C(C)(C)C)cc2)cc1` [Compound 15], the “activity reduction relative to compound 12” value is reported as roughly 3 fold.

As for `CC(C)c1ccc(-c2cc(CNCC3CCNCC3)sc2-c2ccc(C(C)C)cc2)cc1` [Compound 22], the “activity reduction relative to compound 12” value is on record as ~ 8 x.

The same assay, now with this note: read-out: IC50 against p300 HAT.
What is called IC50 is the concentration that inhibits the measured activity by half. On to `CC(C)(C)c1ccc(-c2cc(CNCCC3CCNCC3)sc2-c2ccc(C(C)(C)C)cc2)cc1` [Compound 15], for which the IC50 worked out at 2.2 µM.

Turning to `CC(C)(C)c1ccc(-c2cc(CNCC3CCNCC3)oc2-c2ccc(C(C)(C)C)cc2)cc1` [Compound 34], the IC50 was determined as 9.8 µM.

Regarding `CN(Cc1cc(-c2ccc(C(C)(C)C)cc2)c(-c2ccc(C(C)(C)C)cc2)s1)CC1CCNCC1` [Compound 20], the IC50 was determined as 4.4 µM.

Regarding `CC(C)(C)c1ccc(-c2cc(C(=O)NCC3CCNCC3)sc2-c2ccc(C(C)(C)C)cc2)cc1` [Compound 1], the IC50 came out at 8.6 µM.

On to `CC(C)c1ccc(-c2cc(CNCC3CCNCC3)sc2-c2ccc(C(C)C)cc2)cc1` [Compound 22], for which the IC50 came out at 5.4 µM.

As to `c1cc(-c2ccc(-c3cc(CNCC4CCNCC4)sc3-c3ccc(-c4ccoc4)cc3)cc2)co1` [Compound 11], the half-inhibitory concentration (IC50) came to 1.7 µM.

Regarding `CC(C)(C)c1ccc(-c2cc(CNCCCN)sc2-c2ccc(C(C)(C)C)cc2)cc1` [Compound 16], the half-maximal inhibitory concentration (IC50) was determined as 3 µM.

As to `CC(C)(C)c1ccc(-c2cc(CN(C=O)CC3CCNCC3)sc2-c2ccc(C(C)(C)C)cc2)cc1` [Compound 21], the IC50 amounted to 7 µM.

For the next assay, the system named is Kasumi-1 leukemia cells. Kind of assay: Cellular histone acetylation, Western blot. The class given is cell-based. Conditions: Kasumi-1 cells, 12 h, 5 and 10 µM. As for the experimental part: Kasumi-1 leukemia cells were treated with increasing concentrations of these compounds for 12 h. Histone was extracted and subjected to electrophoresis separation and Western blot staining to determine levels of acetylation at various lysine residues. […] H3K27 seems to be the most sensitive cellular substrate of p300 HAT. […] This might be due to different mode of inhibition or cell permeability for the two compounds.
About 10^6 Kasumi-1 cells per well were incubated with compound 11 at 0, 5 and 10 µM for 12 hours. Histone proteins were extracted using EpiQuik total histone extraction kit (Epigentek), according to the manufacturer’s protocol. Equal amounts of histones (2 µg) were separated on SDS-PAGE and transferred to PVDF membranes. The blots were probed with primary antibodies against H3K9Ac, H3K18Ac, H3K27Ac and H3 (Cell Signaling), followed by anti-rabbit IgG (Thermo Scientific) secondary antibodies.
For orientation: A western blot detects proteins with antibodies after separation by electrophoresis.
For the molecule `CC1=NN(c2ccc(C(=O)O)cc2)C(=O)/C1=C\c1ccc(-c2cc(C)c(C)cc2[N+](=O)[O-])o1` [Compound C646, reference compound], the “cellular acetylation of histone H3K9, H3K18 and H3K27” value is “inhibited”.
